The source of these data is PMC8279416, “Structural Fine-Tuning of Desmuramylpeptide NOD2 Agonists Defines Their In Vivo Adjuvant Activity” (Journal of Medicinal Chemistry, 2021).

Structures are written as SMILES.

One experiment deals with human PBMCs. Briefly: Cytokine release from peripheral blood mononuclear cells (cytometric bead array). Type of experiment: cell-based. The settings on record: 2 μM, 18 h, without LPS. The procedure:
The immunostimulatory effects of the selected desmuramylpeptides were evaluated using human primary peripheral blood mononuclear cells (PBMCs). This heterogeneous mixture of immune cells allowed the study of the effects of these NOD2 agonists in a physiologically relevant system, where other NOD2-interacting and downstream signaling proteins were present. The effects of desmuramylpeptides were first determined for the secreted cytokine profile using a cytometric bead array cytokine kit. Moreover, considering that activation of NOD2 is also an important amplification signal for Toll-like receptor (TLR)-induced inflammatory responses,[79]−[81] we also examined the effects on cytokine secretion of the combination of desmuramylpeptides with LPS, a well-known TLR4 agonist.
In line with previous studies, the effects of MDP and the desmuramylpeptides were most pronounced for the induction of the chemokine IL-8.[82]
Peripheral blood mononuclear cells were seeded (1 × 10^6 cells/mL) in 48-well plates in 500 μL of growth medium and treated with the compounds (2 μM) or with the corresponding vehicle (0.1% DMSO) in the absence and presence of LPS (10 ng/mL). Cell-free supernatants were collected after 18 h of incubation (37 °C, 5% CO2) and stored at −80 °C until tested. Cytokine production was determined with the BD Cytometric Bead Array Human Inflammatory Cytokines Kit (contents: IL-8, IL-1β, IL-6, IL-10, TNF, IL-12p70; BD Bioscience) on an Attune NxT flow cytometer (Thermo Fisher Scientific, Waltham, MA, U.S.A.). Standard curves were generated using recombinant cytokines contained in the kit. The data were analyzed using the FlowJo (Tree Star, Inc., Ashland, OR, U.S.A.) and Prism (GraphPad, San Diego, CA, U.S.A.) software. The experiments were repeated as four independent biological replicates. Statistical significance was determined by repeated measures one-way ANOVA followed with Dunnett’s multiple comparisons test.

Another experiment concerns NIH/OlaHsd mice. Nature of the experiment: In vivo ovalbumin-specific antibody response, first experiment (neutral liposomes). Further details: species or system mouse. The conditions noted are these: for Log10 (anti-OVA IgG1/anti-OVA IgG2a): first in vivo experiment, one week after the booster dose, mean ± SEM of 5 mice; for Boost in the elicited ovalbumin-specific IgG response: vs liposomes without adjuvant. The procedure: To determine whether enhanced antigen presentation in vitro is correlated to in vivo adjuvant activities, an immunization study was performed in a murine model of adjuvanticity. Specifically, the selected desmuramylpeptides were investigated for induction of systemic immune responses against the model antigen ovalbumin. Seven groups of NIH/OlaHsd mice were immunized with ovalbumin-containing neutral liposomes, either alone or with additional adjuvants of MDP or the desmuramylpeptides 1, 68, 74, 75, or 81. After immunization and one booster dose, the mice sera were collected and assayed for ovalbumin-specific IgG antibodies (Figure 10).
Multilamellar liposomes were prepared by the modified thin lipid film method as described previously.[130],[131] For the preparation of neutral liposomes, a 7:5 molar ratio of egg-phosphatidylcholine and cholesterol was used. For the preparation of negatively charged liposomes, a 7:5:1 molar ratio of egg-phosphatidylcholine, cholesterol, and dicetylphosphate was used, while a 7:5:0.5 molar ratio of egg-phosphatidylcholine, cholesterol, and Man-PEG-Pam was used in the preparation of mannosylated liposomes. Lipids (total lipid concentration, 4 mg/mL) were dissolved in chloroform/methanol (2:1). A methanol or chloroform/methanol solution of MDP or the desmuramylpeptides was added to the lipid solution for a final concentration of 2 mM and 1.5 mM for the first (Figure 10) and second (Figure 11) experiments, respectively. After rotary evaporation of the solvent, the remaining lipid film was dried in vacuum for 1 h and then dispersed by gentle handshaking in an ovalbumin solution in saline (0.0667 and 0.1 mg/mL for the first and second experiments, respectively). This was then left overnight at 4 °C to swell and stabilize. Liposome size was reduced by sonification. Nonentrapped material was not separated from liposomes, and the complete liposome suspension was used for immunizations.
For the first experiment (Figure 10), sex-matched NIH/OlaHsd mice (five per group) were immunized subcutaneously in the tail base and boosted one time after 21 days. The injection volume in all experimental groups was 0.15 mL per mouse, which corresponds to 10 μg of OVA, […], and 0.30 μmol of MDP and desmuramylpeptides. For the second experiment (Figure 11), sex-matched NIH/OlaHsd mice (five per group) were immunized and boosted two times subcutaneously into the tail base at 21-day intervals. The injection volume in all experimental groups was 0.1 mL per mouse, which corresponds to 10 μg of OVA, 400 μg of lipids, and 0.15 μmol of MDP and 75. The mice were anesthetized with ip application of ketamine/xylazine (25 mg/kg each) prior to blood collection from the axillary plexus on the seventh day after the last booster dose. Individual serum from each animal was decomplemented at 56 °C for 30 min and then stored at −20 °C until tested.
ELISA assays were performed as detailed previously.[46] Briefly, high-binding ELISA plates (Costar, U.S.A.) were coated with a 15 μg/mL solution of ovalbumin in carbonate buffer, pH 9.6, and incubated overnight at room temperature. Nonspecific antibody binding was blocked with 0.5% w/v bovine serum albumin in PBS-T (0.05% (v/v) Tween 20 in phosphate-buffered saline) for 2 h at 37 °C. After washing, five serial dilutions of mice sera and standard preparations were added in duplicate. Plates were incubated overnight at room temperature, washed, and analyzed for ovalbumin-specific IgG levels by incubation with HRP-conjugated goat anti-mouse IgG (2 h at 37 °C) and then, after washing, with 0.6 mg/mL o-phenylenediaminedihydrochloride solution in citrate-phosphate buffer, pH 5.0, with 0.5 μL of 30% H2O2 per milliliter for 30 min at room temperature in the dark. The enzymatic reaction was stopped with 12.5% H2SO4, and absorbance at 492 nm was measured using a microplate reader (Thermo Fisher Scientific, Waltham, MA, U.S.A.). […]

Where [1] appears, read: neutral liposomes, 0.30 μmol adjuvant per dose, 1 week after booster.
The mark [2] stands for this setting: neutral liposomes, 0.30 μmol adjuvant per dose, s.c., 1 week after booster.

`CCCCCCCCCCCCCCCCCC(=O)Oc1ccc(/C=C/C(=O)NCC(=O)N[C@H](C(=O)N[C@H](CCC(=O)OCC)C(=O)OCC)C(C)C)cc1OC` [Compound 75, Diethyl ((E)-3-(3-Methoxy-4-(stearoyloxy)phenyl)acryloyl)glycyl-L-valyl-D-glutamate]: the “Induction of cytokines IL-1β, IL-6, IL-8 and TNF-α, compound alone” value (“Induction of cytokines IL-1β” below) in the experiment on human PBMCs is recorded as “induced lower responses”. Further, in the experiment with NIH/OlaHsd mice, the “Log10 (anti-OVA IgG1/anti-OVA IgG2a)” value was 2.07 ± 0.17. In the experiment on NIH/OlaHsd mice (setting [1]), the “Ovalbumin-specific IgG1 response (in words)” value was “significantly enhanced” and the “Ovalbumin-specific IgG2a response (in words)” value was “highest levels of IgG2a antibodies”. Moreover, the “Boost in the elicited ovalbumin-specific IgG response” value in the experiment with NIH/OlaHsd mice (setting [2]) was 5 fold.
`COc1cc(/C=C/C(=O)NCC(=O)N[C@H](C(=O)N[C@H](CCC(=O)OC2CCCC2)C(=O)OC2CCCC2)C(C)C)ccc1O` [Compound 68, Dicyclopentyl ((E)-3-(4-Hydroxy-3-methoxyphenyl)acryloyl)glycyl-L-valyl-D-glutamate]: the “Induction of cytokines IL-1β” value in the experiment with human PBMCs is given as “induced small increases in the levels of all four of these cytokines”. For the same compound, the “Log10 (anti-OVA IgG1/anti-OVA IgG2a)” value in the experiment with NIH/OlaHsd mice came out at 2.28 ± 0.13. Besides, in the experiment with NIH/OlaHsd mice (setting [1]), the “Ovalbumin-specific IgG2a response (in words)” value is “slight suppression of the IgG2a response”. In the experiment with NIH/OlaHsd mice (setting [2]), the “Adjuvant activity: ovalbumin-specific IgG (in words)” value is listed as “devoid of adjuvant activity”.
Take `CCCCCCCCCCCCCCCCCC(=O)Oc1ccc(/C=C/C(=O)NCC(=O)N[C@H](C(=O)N[C@H](CCC(=O)OCC)C(=O)OCC)[C@@H](C)O)cc1OC` [Compound 81, Diethyl ((E)-3-(3-Methoxy-4-(stearoyloxy)phenyl)acryloyl)glycyl-L-threonyl-D-glutamate]: the “Induction of cytokines IL-1β” value with human PBMCs is reported as “induced lower responses”. The “Log10 (anti-OVA IgG1/anti-OVA IgG2a)” value in the experiment with NIH/OlaHsd mice came out at 2.18 ± 0.24. The “Ovalbumin-specific IgG1 response (in words)” value with NIH/OlaHsd mice (setting [1]) was “largely IgG1-based response”. Moreover, the “Boost in the elicited ovalbumin-specific IgG response” value with NIH/OlaHsd mice (setting [2]) came out at 3 fold.
